Assay results reported in patent publication US20050031537A1, “Multifunctional COX-2 inhibitors” (priority 2002, published 2005).

Experiments:
Type in all cases: cell-based, human
[1] = tested on: cyclin D1; assay: Western blotting for expression of cyclin D1 (test (c)); conditions: for Test (c) at least 50% downregulation of expression of cyclin D1: positive in 184B5, 184B5/HER cells, 24 h, Western blot
Experimental: Cyclin D1 is a protein that is important in regulating cell proliferation and is described in Ortega, S., et al, Biochimica et Biophysica Acta 1602, 73-87, (2002), the whole of which is incorporated by reference. […] Effects on expression of cyclin D1 was investigated in 184B5, 184B5/HER, HCA7, HCT116, SKBR3 and BT474 cells. The expression was assessed in cells after treatment with test compound or vehicle using 5×10^4 cells for 24 hours. Western blotting technique was used as follows to assess the expression levels of cyclin D1 in cells treated with the test compound and compared to levels in cells treated with vehicle alone. Cell lysates were prepared by treating cells with lysis buffer as described above. […] The resolved proteins were transferred onto nitrocellulose sheets. The nitrocellulose membrane was then incubated with anti-cyclin D1 antiserum. Secondary antibody to IgG conjugated to horseradish peroxidase was used. The various antisera were purchased from Santa Cruz Biotechnology, Inc., CA. The blots were probed with the Renaissance Western blot detection system according to the manufacturer's instructions (PerkinElmer Life Sciences, Boston, Mass.).

[2] = tested on: tcf/lef/β-catenin-mediated promoter activation; assay: TOPflash/FOPflash reporter assay for tcf/lef/β-catenin-mediated promoter activation (test (f)); conditions: positive in 184B5, 184B5/HER, HCA7, HCT116, SKBR3 and BT474 cells; 24 h
Description: Tcf/lef/β-catenin is a transcription factor complex that has been implicated in the regulation of genes involved in carcinogenesis. Increased tcf/lef/β-catenin-mediated gene expression has been linked to pathogenesis of colon cancer. Tcf/lef/β-catenin is described in Barker, N., et al, Adv. Cancer Res. 77, 1-24 (2000), the whole of which is incorporated herein by reference.
Cells (cell lines were 184B5, 184B5/HER, HCA7, HCT116, SKBR3 and BT474) were split into 6 well dishes and the next day were transiently transfected using 8 μg of LipofectAMlNE as per the manufacturer's instructions (Invitrogen, CA). 1.8 μg/dish of the wildtype Tcf/Lef reporter plasmid TOP flash or the mutant plasmid FOP flash was transfected into the cells and 0.2 μg of pSV-β-galactosidase. FOPflash differs from TOPflash by the mutation of its Tcf binding sites and serves to differentiate Tef/-catenin-mediated signaling from background (Upstate Biotechnology, Inc.). Cells were incubated overnight and were treated for 24 hours with either vehicle or test compound. Luciferase activity in the extracts was measured as described above and was corrected for background by subtraction of FOP-FLASH values from corresponding TOP-FLASH values.

[3] = tested on: PPRE luciferase; assay: PPRE luciferase activation, transient transfection reporter assay (test (a)); conditions: for Test (a) activation of PPRE luciferase by at least 100%: positive in 184B5, 184B5/HER, HCA7, HCT116, SKBR3 and BT474 cells, 24 h treatment
Description: We turn now to criterion (a), that is activation of PPRE luciferase by at least 100%. PPRE-luciferase refers to a DNA construct containing the peroxisome proliferator activated receptor (PPAR) binding element joined to luciferase. Cells are transfected with PPRE-luciferase DNA. Ligands of PPAR induce luciferase activity. The ability of a test compound to stimulate PPRE-luciferase signifies that the test compound activates PPAR-mediated gene transcription. PPRE means peroxisome proliferator response element and the method by which PPRE-luciferase is constructed is described in Schoonjans, K., et al, J. Biol. Chem. 270, No. 33, 19269-19276 (Aug. 18, 1995). Use of PPRE-luciferase in a transient transfection to measure increase in promoter activity is disclosed in Subbaramaiah, K. et al, J. Biol. Chem. 270, No. 15, 12440-12448 (Apr. 13, […]).
For each well, 1.8 μg of PPRE3-tk-luciferase construct plasmid DNA (described in Forman, B. M., et al, Cell 83, 803 (1995)) plus 0.2 μg of pSV-β-galactosidase were introduced into cells using 8 μg of LipofectAMINE as per the manufacturer's instructions (Invitrogen, CA). After 7 h of incubation, the medium was replaced with basal medium. After transfection, cells were treated with test compound for 24 h. Reporter activities which include luciferase and β-galactosidase were measured in cellular extract 24 h later. Six wells were used for each of the conditions. Luciferase activity represents data that have been normalized with β-galactosidase.
The luciferase assay was performed as per the BD Pharmingen assay reagents. The Enhanced Luciferase Assay Kit provides a firefly luciferase substrate formulation (Substrates A and B) and cell lysis buffer intended for use in measuring luciferase expressed by transfected cells. Media from cell culture plates was removed and rinsed twice with phosphate buffered saline. Enough 1X cell lysis buffer was added to cover cells and incubated at room temperature for 15-20 min. Cells were dislodged by scraping and transferred to microcentrifuge tubes. […] 20-100 μl cell extract was placed into an assay cuvette. One automatic injector type luminometer is used for assay. Manually 100 μl of Substrate A was added to the assay cuvette and automatically 100 μl of Substrate B was injected. Measurements were performed using a luminometer, for a measurement time of 10 seconds.
The β-galactosidase assay was performed as follows:
50 μl of cell lysate from above was incubated with 50 μl of o-nitrophenyl-β-D-galactoside (ONPG; 4 mg/mL) in Z buffer, (Na2HPO4.7H2O (0.06M), NaH2PO4.H2O (0.04M), 1M KCl (0.01M), 1M MgSO4 (0.001M), β-mercaptoethanol (BME) (0.05M) pH 7.0). The reaction was stopped after sufficient yellow color has developed. The yellow color developed is measured at A420 […].

SMILES	Test (c) at least 50% downregulation of expression of cyclin D1 [1]	Test (f) at least 50% inhibition of tcf/lef/β-catenin-mediated promoter activation [2]	Test (a) activation of PPRE luciferase by at least 100% [3]	decrease in level of cyclin D1 ([1]; 184B5 cells, 24 hours, Western blotting)	activation of the promoter (PPRE-luciferase) ([3]; 184B5 cells, 24 hours, highest concentration)
Cc1ccc(-c2cc(C(F)(F)F)nn2-c2ccc(S(N)(=O)=O)cc2)cc1 [Celecoxib]	+ (A plus sign in the table indicates a positive result, that is meeting the test for each cell line as indicated above as providing a positive result)	+ (A plus sign in the table indicates a positive result, that is meeting the test for each cell line as indicated above as providing a positive result)	+ (A plus sign in the table indicates a positive result, that is meeting the test for each cell line as indicated above as providing a positive result)	–	–
CCCCCCCOC(=O)Cc1c(C)n(C(=O)c2ccc(Cl)cc2)c2ccc(OC)cc12 [Indomethacin Analog 1, indomethacin heptyl ester]	–	+ (A plus sign in the table indicates a positive result, that is meeting the test for each cell line as indicated above as providing a positive result)	+ (A plus sign in the table indicates a positive result, that is meeting the test for each cell line as indicated above as providing a positive result)	–	–
COc1ccc(OC(=O)Cc2c(C)n(C(=O)c3ccc(Cl)cc3)c3ccc(OC)cc23)cc1 [Indomethacin Analog 3, 1-(p-chlorobenzoyl)-5-methoxy-2-methyl-1H-indole-3-acetic acid, 4-methoxyphenyl ester]	–	+ (A plus sign in the table indicates a positive result, that is meeting the test for each cell line as indicated above as providing a positive result)	+ (A plus sign in the table indicates a positive result, that is meeting the test for each cell line as indicated above as providing a positive result)	–	–
NS(=O)(=O)c1ccc(-n2nc(C(F)(F)F)cc2-c2ccc(Cl)cc2)cc1 [SC-236, 4-[5-(4-chlorophenyl)-3-(trifluoromethyl)-1H-pyrazol-1-yl]benzenesulfonamide]	+ (A plus sign in the table indicates a positive result, that is meeting the test for each cell line as indicated above as providing a positive result)	+ (A plus sign in the table indicates a positive result, that is meeting the test for each cell line as indicated above as providing a positive result)	+ (A plus sign in the table indicates a positive result, that is meeting the test for each cell line as indicated above as providing a positive result)	more than 50%	150%
CS(=O)(=O)c1ccc(-n2nc(C(F)(F)F)cc2-c2ccc(F)cc2)cc1 [SC-58125, 4-[5-(4-fluorophenyl)-3-(trifluoromethyl)-1H-pyrazol-1-yl]benzenemethylsulfone]	+ (A plus sign in the table indicates a positive result, that is meeting the test for each cell line as indicated above as providing a positive result)	+ (A plus sign in the table indicates a positive result, that is meeting the test for each cell line as indicated above as providing a positive result)	+ (A plus sign in the table indicates a positive result, that is meeting the test for each cell line as indicated above as providing a positive result)	–	–
